Target: T1, human kinase Mps-1 (Homo sapiens, UniProt P33981)
T1 construct: N-terminally GST-tagged human full length recombinant Mps-1 kinase; GST (N); purchased Invitrogen, Karslruhe, Germany PV4071
T1 sequence (P33981 1-857): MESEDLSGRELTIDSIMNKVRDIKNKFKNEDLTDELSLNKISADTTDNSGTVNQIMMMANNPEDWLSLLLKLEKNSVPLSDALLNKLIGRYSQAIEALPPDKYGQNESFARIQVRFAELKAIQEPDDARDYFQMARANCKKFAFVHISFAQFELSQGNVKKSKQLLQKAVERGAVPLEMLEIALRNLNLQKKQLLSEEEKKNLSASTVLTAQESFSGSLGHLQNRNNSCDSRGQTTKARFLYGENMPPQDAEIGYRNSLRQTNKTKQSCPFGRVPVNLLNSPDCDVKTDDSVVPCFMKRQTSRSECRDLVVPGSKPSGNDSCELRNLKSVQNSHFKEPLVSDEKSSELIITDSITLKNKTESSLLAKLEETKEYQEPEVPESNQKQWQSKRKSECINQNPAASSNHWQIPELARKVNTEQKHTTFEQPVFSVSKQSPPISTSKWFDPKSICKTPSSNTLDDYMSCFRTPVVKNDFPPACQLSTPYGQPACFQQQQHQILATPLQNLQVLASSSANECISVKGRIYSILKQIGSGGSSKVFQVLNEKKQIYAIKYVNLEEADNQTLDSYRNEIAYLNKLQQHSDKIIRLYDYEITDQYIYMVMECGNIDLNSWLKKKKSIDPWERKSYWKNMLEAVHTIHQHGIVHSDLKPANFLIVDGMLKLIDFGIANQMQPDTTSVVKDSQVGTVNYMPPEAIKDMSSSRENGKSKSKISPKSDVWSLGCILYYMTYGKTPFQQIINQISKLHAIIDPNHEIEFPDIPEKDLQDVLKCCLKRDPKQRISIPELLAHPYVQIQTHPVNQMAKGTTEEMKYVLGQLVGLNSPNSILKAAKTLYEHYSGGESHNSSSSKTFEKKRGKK
Experiment: Mps-1 kinase assay (TR-FRET)
Assay type: biochemical
Conditions: GST-tagged human full length recombinant Mps-1; 10 μM ATP; 1 μM peptide substrate; 60 min at 22° C.
In short: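 TR-FRET read-out: after 1 h binding at 22° C, Eu-labelled anti-phospho-Ser/Thr antibody transfers to SA-XLent on the phosphorylated biotinylated peptide. The enzyme is GST-tagged full-length human Mps-1, typically about 1 nM final, in the linear range.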

IC50	SMILES
42.2 nM	CC(C)CNc1nc(CCCN(C)C)cn2c(-c3ccc(C(=O)NC4CC4)cc3)cnc12 [Example 7-2, N-cyclopropyl-4-{6-[3-(dimethylamino)propyl]-8-[(2-methylpropyl)amino]imidazo[1,2-a]pyrazin-3-yl}benzamide]
4.8 nM	NC(=O)Cc1cccc(-c2cn3c(-c4ccc(C(=O)NC5CC5)cc4)cnc3c(NCCCO)n2)c1 [Example 1-89, 4-{6-[3-(2-amino-2-oxo-ethyl)phenyl]-8-[(3-hydroxy-propyl)amino]imidazo[1,2-a]pyrazin-3-yl}-N-cyclopropyl-benzamide]
9.2 nM	CC(C)CNc1nc(-c2ccoc2)cn2c(-c3ccc(C(=O)NC4CC4)c(F)c3)cnc12 [Example 1-50, N-cyclopropyl-2-fluoro-4-{6-(furan-3-yl)-8-[(2-methylpropyl)amino]imidazo[1,2-a]pyrazin-3-yl}benzamide]
< 1 nM	Cc1cc(-c2cnc3c(NCCC(F)(F)F)nc(Sc4ccccc4)cn23)ccc1C(=O)NC1CC1 [Example 15-2, N-cyclopropyl-2-methyl-4-{6-(phenylsulfanyl)-8-[(3,3,3-trifluoropropyl)amino]imidazo[1,2-a]pyrazin-3-yl}benzamide]
55.3 nM	CC(C)(O)CNc1nc(-c2ccoc2)cn2c(-c3ccc(C(=O)NC4CC4)c(Cl)c3)cnc12 [Example 1-41, 2-chloro-N-cyclopropyl-4-{6-(furan-3-yl)-8-[(2-hydroxy-2-methylpropyl)amino]imidazo[1,2-a]pyrazin-3-yl}benzamide]
2.3 nM	Cc1ccc(-c2cn3c(-c4ccc(C(=O)NC5CC5)cc4)cnc3c(NCC(C)C)n2)cc1CC(N)=O [Example 1-87, 4-{6-[3-(2-amino-2-oxoethyl)-4-methylphenyl]-8-(isobutyl-amino)imidazo[1,2-a]pyrazin-3-yl}-N-cyclopropyl-benzamide]
8.6 nM	Cc1cc(-c2cnc3c(NCC4CC4C)nc(C4=CCOCC4)cn23)ccc1C(=O)NC1CC1 (centres unmarked) [Example 6-16, N-cyclopropyl-4-[6-(3,6-dihydro-2H-pyran-4-yl)-8-{[(2-methylcyclo-propyl)methyl]amino}imidazo [1,2-a]pyrazin-3-yl]-2-methylbenzamide]
8 nM	CC(C)CNc1nc(-c2cccs2)cn2c(-c3ccc(C(=O)NC4CC4)cc3)cnc12 [Example 1-9, N-cyclopropyl-4-{8-[(2-methylpropyl)amino]-6-(thiophen-2-yl)imidazo [1,2-a]pyrazin-3-yl} benzamide]
19.3 nM	O=C(NC1CC1)c1ccc(-c2cnc3c(NC[C@@H](O)CO)nc(-c4ccncc4)cn23)cc1 [Example 3-37, N-cyclopropyl-4-{8-[(2,3-dihydroxypropyl)amino]-6-(pyridin-4-yl)imidazo [1,2-a]pyrazin-3-yl}benzamide]
2.4 nM	CC(C)CCNc1nc(-c2ccncc2)cn2c(-c3ccc(C(=O)NC4CC4)cc3)cnc12 [Example 3-6, N-cyclopropyl-4-{8-[(3-methylbutyl)amino]-6-(pyridin-4-yl)imidazo [1,2-a]pyrazin-3-yl} benzamide]
16 nM	Cc1cc(-c2cnc3c(NCCC(F)(F)F)nc(C4=CC[S+]([O-])CC4)cn23)ccc1C(=O)NC1CC1 (centres unmarked) [Example 9-1, N-cyclopropyl-2-methyl-4-{6-(1-oxido-3,6-dihydro-2H-thiopyran-4-yl)-8-[(3,3,3-trifluoropropyl)amino]imidazo[1,2-a]pyrazin-3-yl}benzamide]
5.9 nM	O=C(NC1CC1)c1ccc(-c2cnc3c(NCCC(F)(F)F)nc(-c4ccncc4)cn23)cc1Cl [Example 1-36, 2-chloro-N-cyclopropyl-4-{6-(pyridin-4-yl)-8-[(3,3,3-trifluoropropyl)amino]imidazo[1,2-a]pyrazin-3-yl}benzamide]
1.5 nM	Cc1cc(-c2cnc3c(NCC(C)C)nc(-c4ccncc4)cn23)ccc1C(=O)NC1CC1 [Example 6-1, N-cyclopropyl-2-methyl-4-{8-[(2-methylpropyl)amino]-6-(pyridin-4-yl)imidazo[1,2-a]pyrazin-3-yl}benzamide]
82.9 nM	Cc1cc(-c2cnc3c(NCCC(F)(F)F)nc(CN)cn23)ccc1C(=O)NC1CC1 [Example 10-1, 4-{6-(aminomethyl)-8-[(3,3,3-trifluoropropyl)amino]imidazo[1,2-a]pyrazin-3-yl}-N-cyclopropyl-2-methylbenzamide]
12.9 nM	O=C(NC1CC1)c1ccc(-c2cnc3c(NCCCn4ccnc4)nc(-c4ccncc4)cn23)cc1 [Example 3-16, N-cyclopropyl-4-[8-{[3-(1H-imidazol-1-yl)propyl]amino}-6-(pyridin-4-yl)imidazo[1,2-a]pyrazin-3-yl]benzamide]
1.9 nM	NS(=O)(=O)CCNc1nc(-c2ccncc2)cn2c(-c3ccc(C(=O)NC4CC4)cc3)cnc12 [Example 3-35, N-cyclopropyl-4-{6-(pyridin-4-yl)-8-[(2-sulfamoylethyl)amino]imidazo [1,2-a]pyrazin-3-yl} benzamide]
140 nM	Cc1cc(-c2cnc3c(NCCC(F)(F)F)nc(CN4CCCCC4)cn23)ccc1C(=O)NC1CC1 [Example 11-1, N-cyclopropyl-2-methyl-4-{6-(piperidin-1-ylmethyl)-8-[(3,3,3-trifluoropropyl)amino]imidazo[1,2-a]pyrazin-3-yl}benzamide]
2 nM	CC(C)CNc1nc(C2=CCSCC2)cn2c(-c3ccc(C(=O)NC4CC4)cc3)cnc12 [Example 1-28, N-cyclopropyl-4-{6-(3,6-dihydro-2H-thiopyran-4-yl)-8-[(2-methylpropyl)amino]imidazo[1,2-a]pyrazin-3-yl}benzamide]
3.8 nM	O=C(NC1CC1)c1ccc(-c2cnc3c(NCCC(F)(F)F)nc(-c4ccncc4)cn23)cc1F [Example 1-53, N-cyclopropyl-2-fluoro-4-{6-(pyridin-4-yl)-8-[(3,3,3-trifluoropropyl)amino]imidazo[1,2-a]pyrazin-3-yl}benzamide]
14.1 nM	O=C(NC1CC1)c1ccc(-c2cnc3c(NCCC(F)(F)F)nc(-c4ccn[nH]4)cn23)cc1Cl [Example 1-38, 2-chloro-N-cyclopropyl-4-{6-(1H-pyrazol-5-yl)-8-[(3,3,3-trifluoropropyl)amino]imidazo[1,2-a]pyrazin-3-yl}benzamide]
3.3 nM	CC(C)CNc1nc(-c2ccnc3ccccc23)cn2c(-c3ccc(C(=O)NC4CC4)cc3)cnc12 [Example 1-4, N-cyclopropyl-4-{8-[(2-methylpropyl)amino]-6-(quinolin-4-yl)imidazo [1,2-a]pyrazin-3-yl} benzamide]
11.7 nM	CC(C)CNc1nc(C(=O)NCCN2CCCCC2)cn2c(-c3ccc(C(=O)NC4CC4)cc3)cnc12 [Example 8-2, 3-[4-(cyclopropylcarbamoyl)phenyl]-8-[(2-methylpropyl)amino]-N-[2-(piperidin-1-yl)ethyl] imidazo[1,2-a]pyrazine 6-carboxamide]
9.8 nM	Cn1ccc(CNc2nc(-c3ccncc3)cn3c(-c4ccc(C(=O)NC5CC5)cc4)cnc23)n1 [Example 3-27, N-cyclopropyl-4-[8-{[(1-methyl-1H-pyrazol-3-yl)methyl]amino}-6-(pyridin-4-yl)imidazo [1,2-a]pyrazin-3-yl] benzamide]
3.2 nM	O=C(NC1CC1)c1ccc(-c2cnc3c(NCCCF)nc(-c4ccncc4)cn23)cc1 [Example 3-33, N-cyclopropyl-4-{8-[(3-fluoropropyl)amino]-6-(pyridin-4-yl)imidazo [1,2-a]pyrazin-3-yl} benzamide]
1 nM	CC(C)CNc1nc(Oc2ccccc2)cn2c(-c3ccc(C(=O)NC4CC4)cc3)cnc12 [Example 13-1]
4.2 nM	CC(C)CNc1nc(-c2ccc(F)nc2)cn2c(-c3ccc(C(=O)NC4CC4)cc3)cnc12 [Example 1-5, N-cyclopropyl-4-{6-(6-fluoropyridin-3-yl)-8-[(2-methylpropyl)amino]imidazo[1,2-a]pyrazin-3-yl}benzamide]
4.4 nM	NC/C=C/CCNc1nc(-c2ccccc2)cn2c(-c3ccc(C(=O)NC4CC4)cc3)cnc12 [Example 4-2, 4-(8-{[(3E)-5-aminopent-3-en-1-yl]amino}-6-phenylimidazo[1,2-a]pyrazin-3-yl)-N-cyclopropylbenzamide]
8 nM	CC(O)CNc1nc(-c2ccncc2)cn2c(-c3ccc(C(=O)NC4CC4)cc3)cnc12 (centres unmarked) [Example 3-23, N-cyclopropyl-4-{8-[(2-hydroxypropyl)amino]-6-(pyrdin-4-yl)imidazo [1,2-a]pyrazin-3-yl} benzamide]

SMILES	IC50
CC(C)CNc1nc(C2=CCN(C)CC2)cn2c(-c3ccc(C(=O)NC4CC4)cc3)cnc12 [Example 1-27, N-cyclopropyl-4-{8-[(2-methylpropyl)amino]-6-(1-methyl-1,2,3,6-tetra-hydropyridin-4-yl)imidazo[1,2-a]pyrazin-3-yl}benzamide]	7.5 nM
